Where two headings read alike, the source gives them in different places. Non-standard residues stand in square brackets, D forms with d. Residues, ends and D or L forms follow the SMILES beside them.
What was measured:
[1] = tested on: P. aeruginosa PA14 4.18 (pmrB); details: for MIC P. aeruginosa PA14 4.18: supplement CSV
[2] = tested on: P. aeruginosa PA14 4.13 (phoQ); details: for MIC P. aeruginosa PA14 4.13: supplement CSV
human red blood cells = test: Hemolysis assay, minimum hemolytic concentration
[3] = tested on: P. aeruginosa PA14 2P4 (pmrB); test: microbe, parasite or virus in culture; details: for MIC P. aeruginosa PA14 2P4: supplement CSV
Procedure, shortened: (§1)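 Minimal inhibitory concentrations come from broth microdilution in MH medium, with a top peptide concentration of 64 μg/mL halved serially.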

E. cloacae = test: microbe, parasite or virus in culture; details: for MIC E. cloacae: supplement CSV
Procedure, shortened: as §1

P. aeruginosa ZEM-1A = test: microbe, parasite or virus in culture; details: for MIC P. aeruginosa ZEM-1A: supplement CSV
Procedure, shortened: as §1

P. aeruginosa ZEM9A = test: microbe, parasite or virus in culture; details: for MIC P. aeruginosa ZEM9A: supplement CSV
Procedure, shortened: as §1

K. pneumoniae OXA-48 = test: microbe, parasite or virus in culture; details: for MIC K. pneumoniae OXA-48: supplement CSV
Procedure, shortened: as §1

P. aeruginosa PA14 = test: microbe, parasite or virus in culture; details: for MIC P. aeruginosa PA14: supplement CSV
Procedure, shortened: as §1

S. aureus COL (MRSA) = test: microbe, parasite or virus in culture; details: for MIC S. aureus COL (MRSA): supplement CSV
Procedure, shortened: (§2)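 Read-out was visible growth after MTT addition, the MIC being the lowest inhibitory peptide concentration. Bacteria grown to log phase in LB were exposed in MH medium to peptide from 64 μg/mL in twofold dilutions for 15-18h at 37°C.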

E. coli W3110 = test: microbe, parasite or virus in culture; details: for MIC E. coli W3110: supplement CSV
Procedure, shortened: as §2

K. pneumoniae NCTC 418 = test: microbe, parasite or virus in culture; details: for MIC K. pneumoniae NCTC418: supplement CSV
Procedure, shortened: as §2

P. aeruginosa PAO1 = test: microbe, parasite or virus in culture; details: for MIC P. aeruginosa PAO1: supplement CSV
Procedure, shortened: as §2

A. baumannii ATCC19606 = test: microbe, parasite or virus in culture; details: for MIC A. baumannii ATCC19606: supplement CSV
Procedure, shortened: as §2

[4] = polymyxin B resistant strain, 12.5% MHB pH 7.4, 16–20 h at 37 °C
[5] = polymyxin B resistant strain, full MHB pH 7.4, 16–20 h at 37 °C

CC[C@@H](C)[C@@H](NC(=O)[C@@H](CCCNC(=N)N)NC(=O)[C@@H](CCCNC(=N)N)NC(=O)[C@H]1CCCN1C(=O)[C@H]1CCCN1C(=O)[C@@H](CCCNC(=N)N)NC(=O)[C@H]1CCCN1C(=O)[C@@H](CCCNC(=N)N)NC(=O)[C@H]1CCCN1C(=O)[C@@H](CC(C)C)NC(=O)[C@@H](Cc1ccc(O)cc1)NC(=O)[C@H]1CCCN1C(=O)[C@H]1CCCN1C(=O)[C@@H](CCCCN)NC(=O)[C@@H](CC(=O)O)NC(=O)[C@H](N)C(C)C)C(=O)N[C@H](Cc1ccc(O)cc1)C(=O)N[C@H](CC(N)=O)C(=O)N[C@H](CCCNC(=N)N)C(N)=O [D-Onc] (H-[dV][dD][dK][dP][dP][dY][dL][dP][dR][dP][dR][dP][dP][dR][dR][dI][dY][dN][dR]-NH2)
16 µg/mL: MIC P. aeruginosa PA14 4.18 (pmrB), 12.5% MHB [1, 4] | MIC P. aeruginosa PA14 4.18 ([1]; 12.5% MH pH 7.4) | MIC P. aeruginosa PA14 4.13 (phoQ), 12.5% MHB [2, 4] | MIC P. aeruginosa PA14 4.13 ([2]; 12.5% MH pH 7.4) | MIC E. cloacae, 12.5% MHB (E. cloacae; 12.5% MHB pH 7.4, 16–20 h at 37 °C) | MIC E. cloacae (E. cloacae; 12.5% MH pH 7.4) | MIC A. baumannii, 12.5% MHB (A. baumannii ATCC19606; A. baumannii ATCC19606, 12.5% Müller–Hinton medium, 16–20 h at 37 °C) | MIC A. baumannii ATCC19606 (A. baumannii ATCC19606; 12.5% MH pH 7.4)
>64/>64 ^c μg/mL: MIC P. aeruginosa ZEM-1A, 12.5% MHB (P. aeruginosa ZEM-1A; clinical isolate, 12.5% MHB pH 7.4, 16–20 h at 37 °C, cells marked c: single measurement (in duplicates)) | MIC P. aeruginosa ZEM-1A, full MHB (P. aeruginosa ZEM-1A; clinical isolate, full MHB pH 7.4, 16–20 h at 37 °C, cells marked c: single measurement (in duplicates))
64 µg/mL: MIC K. pneumoniae OXA-48 (K. pneumoniae OXA-48; 12.5% MH pH 7.4) | MIC S. aureus COL (MRSA) (S. aureus COL (MRSA); 12.5% MH pH 7.4)
8 µg/mL: MIC P. aeruginosa PA14 2P4 (pmrB), 12.5% MHB [3, 4] | MIC P. aeruginosa PA14 2P4 ([3]; 12.5% MH pH 7.4) | MIC E. coli, 12.5% MHB (E. coli W3110; E. coli W3110, 12.5% Müller–Hinton medium, 16–20 h at 37 °C, broth microdilution) | MIC E. coli W3110 (E. coli W3110; 12.5% MH pH 7.4) | MIC P. aeruginosa, 12.5% MHB (P. aeruginosa PAO1; P. aeruginosa PAO1, 12.5% Müller–Hinton medium, 16–20 h at 37 °C) | MIC P. aeruginosa PAO1 (P. aeruginosa PAO1; 12.5% MH pH 7.4)
>1000 µg/mL: Haemolysis on hRBC, MHC (human red blood cells; 2.5% human red blood cells (final) in 10 mM phosphate, 150 mM NaCl, pH 7.4, 25 °C, 4 h, visual inspection) | MHC human red blood cells (human red blood cells; supplement CSV)
>64/64 μg/mL: MIC K. pneumoniae OXA-48, 12.5% MHB (K. pneumoniae OXA-48; carbapenem-resistant, 12.5% MHB pH 7.4, 16–20 h at 37 °C) | MIC K. pneumoniae OXA-48, full MHB (K. pneumoniae OXA-48; carbapenem-resistant, full MHB pH 7.4, 16–20 h at 37 °C)
> 64 µg/mL: MIC P. aeruginosa PA14 4.18 (pmrB), full MHB [1, 5] | MIC P. aeruginosa PA14 4.13 (phoQ), full MHB [2, 5] | MIC P. aeruginosa PA14 2P4 (pmrB), full MHB [3, 5] | MIC E. cloacae, full MHB (E. cloacae; full MHB pH 7.4, 16–20 h at 37 °C) | MIC P. aeruginosa ZEM9A, full MHB (P. aeruginosa ZEM9A; clinical isolate, full MHB pH 7.4, 16–20 h at 37 °C) | MIC P. aeruginosa PA14, full MHB (P. aeruginosa PA14; full MHB pH 7.4, 16–20 h at 37 °C, two different duplicate MIC determinations) | MIC K. pneumoniae, Full MHB (K. pneumoniae NCTC 418; K. pneumoniae NCTC 418, full Müller–Hinton medium, 16–20 h at 37 °C) | MIC P. aeruginosa, Full MHB (P. aeruginosa PAO1; P. aeruginosa PAO1, full Müller–Hinton medium, 16–20 h at 37 °C) | MIC A. baumannii, Full MHB (A. baumannii ATCC19606; A. baumannii ATCC19606, full Müller–Hinton medium, 16–20 h at 37 °C)
> 16 µg/mL: MIC K. pneumoniae, 12.5% MHB (K. pneumoniae NCTC 418; K. pneumoniae NCTC 418, 12.5% Müller–Hinton medium, 16–20 h at 37 °C)
>16 µg/mL: MIC K. pneumoniae NCTC418 (K. pneumoniae NCTC 418; 12.5% MH pH 7.4)
32 µg/mL: MIC P. aeruginosa ZEM9A, 12.5% MHB (P. aeruginosa ZEM9A; clinical isolate, 12.5% MHB pH 7.4, 16–20 h at 37 °C) | MIC P. aeruginosa ZEM9A (P. aeruginosa ZEM9A; 12.5% MH pH 7.4) | MIC P. aeruginosa PA14, 12.5% MHB (P. aeruginosa PA14; 12.5% MHB pH 7.4, 16–20 h at 37 °C, two different duplicate MIC determinations) | MIC P. aeruginosa PA14 (P. aeruginosa PA14; 12.5% MH pH 7.4) | MIC E. coli, Full MHB (E. coli W3110; E. coli W3110, full Müller–Hinton medium, 16–20 h at 37 °C, broth microdilution) | MIC E. coli W3110 (E. coli W3110; full MH pH 7.4)
>64 / 64 μg/mL: MIC S. aureus, 12.5% MHB (S. aureus COL (MRSA); S. aureus COL (MRSA), 12.5% Müller–Hinton medium, 16–20 h at 37 °C) | MIC S. aureus, Full MHB (S. aureus COL (MRSA); S. aureus COL (MRSA), full Müller–Hinton medium, 16–20 h at 37 °C)
>64 µg/mL: MIC P. aeruginosa PA14 4.18 ([1]; full MH pH 7.4) | MIC P. aeruginosa PA14 4.13 ([2]; full MH pH 7.4) | MIC P. aeruginosa PA14 2P4 ([3]; full MH pH 7.4) | MIC E. cloacae (E. cloacae; full MH pH 7.4) | MIC P. aeruginosa ZEM-1A (P. aeruginosa ZEM-1A; 12.5% MH pH 7.4) | MIC P. aeruginosa ZEM-1A (P. aeruginosa ZEM-1A; full MH pH 7.4) | MIC P. aeruginosa ZEM9A (P. aeruginosa ZEM9A; full MH pH 7.4) | MIC K. pneumoniae OXA-48 (K. pneumoniae OXA-48; full MH pH 7.4) | MIC P. aeruginosa PA14 (P. aeruginosa PA14; full MH pH 7.4) | MIC S. aureus COL (MRSA) (S. aureus COL (MRSA); full MH pH 7.4) | MIC K. pneumoniae NCTC418 (K. pneumoniae NCTC 418; full MH pH 7.4) | MIC P. aeruginosa PAO1 (P. aeruginosa PAO1; full MH pH 7.4) | MIC A. baumannii ATCC19606 (A. baumannii ATCC19606; full MH pH 7.4)

From PMC11571207, “Stereorandomized Oncocins with Preserved Ribosome Binding and Antibacterial Activity” (Journal of Medicinal Chemistry, 2024)
